Measured values reported in patent US9056862B2, “Thioxothiazolidine derivative having Ras function inhibitory effect” (NATIONAL UNIVERSITY CORPORATION KOBE UNIVERSITY, priority 2011, dated 2015).

What was measured:
[1] = system: human colorectal cancer cell line, SW480, which has active form of K-Ras; test: In vivo assay: tumor growth inhibition in SW480 xenograft in nude mice; conditions: 80 mg/kg orally once a day, five consecutive days per week, after three-week administration; SW480 subcutaneous in female nude mice; control group = 100%
Description: A cell suspension (about 2×10^6 cells) of human colorectal cancer cell line, SW480, which has active form of K-Ras, was subcutaneously inoculated and implanted with a syringe at the right flank of 6 to 8-week-old nude mice (female). After a tumor grew to the grossly recognizable size (40-100 mm^3), a compound (80 mg/kg) dissolved in a solvent (Cremophor EL:Ethanol:Water=1:1:6) was orally administered once a day for five consecutive days per week. This is considered as the compound administration group. A solvent alone was administered to control group in the same manner. After the compound administration started, tumor volumes of both the groups were measured twice a week. Tumor growth inhibition rates were calculated by comparing tumor volumes of control group (100%) and those of compound administration group after three-week administration to evaluate anticancer activity of a compound. The tumor growth inhibition rates in the case of orally administering compounds of the present invention at 80 mg/Kg are shown in the following Table 7.

Ras-Raf binding = target: T1, Ras-Raf binding; test: In vitro binding assay: Ras-Raf binding inhibition (GST-Raf on resin, GTPγ[35S]-labeled Ras, scintillation counting); conditions: GST-Raf fusion protein on resin, radioactive Ras, compound dissolved in 10% DMSO
T1 construct: fused on or other part: GST tag on Ras was cleaved off with PreScission protease before the test
Description: • 1) A fusion protein of Raf (target protein of Ras) and GST (glutathione S-transferase) was expressed in Escherichia coli using GST fusion protein expression vector (pGEX-6P-1 vector (GE Healthcare)). The expressed GST-Raf fusion protein was immobilized on an affinity carrier for purification (glutathione Sepharose 4B: resin (GE Healthcare)). • 2) Radioisotope-labeled Ras
GTPγ[^35S] (Perkin Elmer), which is one of the GTP analogs, was added to Ras in which GST tag was cleaved using GST fusion protein cleavage protease (PreScission protease (GE Healthcare)) to prepare radioisotope-labeled Ras. • 3) Measurement of Ras-Raf binding inhibition activity
GST-Raf fusion protein immobilized on the resin in the above-mentioned 1) and the radioactive Ras prepared in the above-mentioned 2) were incubated in the presence of various concentrations of a compound dissolved in 10% DMSO to promote the binding reaction between Ras and Raf. The resin in the reaction solution was washed, and then, the complex of GST-Raf fusion protein and radioactive Ras was eluted by adding glutathione. The binding activity between Ras and Raf was measured by scintillation counting of the radioactivity of the eluate. Thus, the Ras-Raf binding inhibition activity by addition of various compounds was evaluated.

IC50 (Ras-Raf binding) [µM]	SMILES	tumor growth inhibition rate (%) [1] [%]
100	O=C1/C(=C/c2ccccc2Oc2ccccc2)SC(=S)N1NC1=NS(=O)(=O)c2ccccc21 [Example 13]	70
160	O=C1/C(=C/c2ccccc2OCCOc2ccccc2)SC(=S)N1NC1=NS(=O)(=O)c2ccccc21 [Example 53]	
100	Cc1ccc(OCCOc2ccccc2/C=C2\SC(=S)N(NC3=NS(=O)(=O)c4ccccc43)C2=O)cc1 [Example 55]	
90	O=C1/C(=C/c2ccccc2OCCOc2ccc([N+](=O)[O-])cc2)SC(=S)N1NC1=NS(=O)(=O)c2ccccc21 [Example 56]	62

Further lines, the compound ahead of its results:

SMILES	IC50 (Ras-Raf binding) [µM]	tumor growth inhibition rate (%) [1] [%]
O=C1/C(=C/c2ccc(Oc3ccccc3)cc2)SC(=S)N1NC1=NS(=O)(=O)c2ccccc21 [Example 1, 3-[(4-oxo-5-(4-phenoxybenzylidene)-2-thioxothiazolidin-3-yl)amino]-1,2-benzisothiazole 1,1-dioxide]	70	88
O=C1/C(=C/c2ccc(Br)cc2)SC(=S)N1NC1=NS(=O)(=O)c2ccccc21 [Example 6]	400	85
O=C1/C(=C/c2ccc([N+](=O)[O-])cc2[N+](=O)[O-])SC(=S)N1NC1=NS(=O)(=O)c2ccccc21 [Example 7]	200	85
O=C1/C(=C/c2cccc(Oc3ccccc3)c2)SC(=S)N1NC1=NS(=O)(=O)c2ccccc21 [Example 12]	50	86
O=C1/C(=C/c2ccc(OCc3ccccc3)cc2)SC(=S)N1NC1=NS(=O)(=O)c2ccccc21 [Example 16]	100	69
CC(C)(C)OC(=O)NCCOc1cccc(C=C2SC(=S)N(NC3=NS(=O)(=O)c4ccccc43)C2=O)c1 [Example 167, 3-[(4-Oxo-5-(3-(2-t-butoxycarbonylaminoethyloxy)benzylidene)-2-thioxothiazolidin-3-yl)amino]-1,2-benzothiazole 1,1-dioxide]	360	
